Patent publication US9359338B2, “Cyclopropanecarboxamido-substitute aromatic compounds as anti-tumor agents” (Crown Bioscience Inc. (Taiwan), priority 2012, dated 2016)
Like-named read-outs stand apart in the source and are kept apart here.

What was measured:
B-Raf kinase = B-Raf kinase (Homo sapiens (Human), UniProt P15056); assay: Inhibitory activity at B-Raf kinase (ADP-GLO assay); format: biochemical
In short: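 B-Raf (5 nM) was preincubated with compound (0.25% DMSO final) for 20 min at 30 °C in 50 mM Hepes pH 7.5, 10 mM Mg²⁺, 1 mM EGTA, 2 mM DTT. Reaction with 6 μM ATP and 30 nM GST-MEK1 ran 2 hrs at 30 °C. ADP was detected by ADP-GLO luminescence, giving IC50 values.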

PLC-PRF-5 cells = assay: Inhibition of proliferation of PLC-PRF-5 cells (ATPlite); format: cell-based; conditions: Homo sapiens
In short: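 PLC-PRF-5 cells in DMEM/10% FBS, seeded 2 h before compound; 8-point 3-fold dilutions from 30 μM final top, 0.3% DMSO. After 96 h at 37 °C, 5% CO2, ATP content read by ATPlite luminescence; IC50 calculated.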

pERK in MDA-MB-231 cells = assay: Inhibitory activity at pERK (In Cell Western, MDA-MB-231 cells); format: cell-based; conditions: Homo sapiens
In short: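 MDA-MB-231 cells were treated 2 h at 37 °C with 8 compound concentrations in 3-fold dilutions from 30 μM top (0.3% DMSO, DMEM with 0.1% BSA). Cells were then fixed, methanol-permeabilized and immunostained for pERK with PI counterstain. Fluorescence was read on Acumen and IC50 calculated.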

KDR kinase (790-1356 AA) = KDR kinase (790-1356 AA) (Homo sapiens (Human), UniProt P35968); assay: Inhibitory activity at KDR kinase (Lance Ultra Ulight-TK assay); format: biochemical
Chain of KDR kinase (790-1356 AA) (P35968 790-1356): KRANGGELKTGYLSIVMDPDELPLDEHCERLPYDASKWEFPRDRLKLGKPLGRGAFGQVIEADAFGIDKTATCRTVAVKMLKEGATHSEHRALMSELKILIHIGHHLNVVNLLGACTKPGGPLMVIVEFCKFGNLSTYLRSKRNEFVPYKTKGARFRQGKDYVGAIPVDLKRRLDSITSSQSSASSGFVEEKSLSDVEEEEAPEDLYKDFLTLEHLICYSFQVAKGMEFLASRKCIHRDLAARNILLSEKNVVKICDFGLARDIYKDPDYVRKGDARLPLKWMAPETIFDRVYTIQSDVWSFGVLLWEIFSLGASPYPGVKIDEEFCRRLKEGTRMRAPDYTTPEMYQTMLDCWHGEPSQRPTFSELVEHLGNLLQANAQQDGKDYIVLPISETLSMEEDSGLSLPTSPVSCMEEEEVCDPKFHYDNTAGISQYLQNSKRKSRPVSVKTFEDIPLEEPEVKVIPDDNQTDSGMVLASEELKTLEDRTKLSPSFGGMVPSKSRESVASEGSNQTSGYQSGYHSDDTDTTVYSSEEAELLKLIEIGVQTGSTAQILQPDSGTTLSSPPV
In short: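 TR-FRET (Eu-anti-phosphotyrosine PT66) with 20 nM KDR preincubated with compound 20 min at 30 °C in HEPES pH 7.5 buffer with Mg2+/Mn2+, 0.5% DMSO.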

[1] = Half-life in pre-clinical animal studies; format: in vivo; conditions: compared with compounds of the invention
tumor = assay: In vivo anti-tumor activity in pre-clinical animal studies; conditions: compared with compounds of the invention
[2] = PLC-PRF-5, PLC-PRF-5 cells, read-out: PLC-PRF-5 cell proliferation IC50
[3] = MDA-MB-231, MDA-MB-231 cells, read-out: MDA-MB-231 pERK IC50

Chain of B-Raf kinase (P15056 416-766): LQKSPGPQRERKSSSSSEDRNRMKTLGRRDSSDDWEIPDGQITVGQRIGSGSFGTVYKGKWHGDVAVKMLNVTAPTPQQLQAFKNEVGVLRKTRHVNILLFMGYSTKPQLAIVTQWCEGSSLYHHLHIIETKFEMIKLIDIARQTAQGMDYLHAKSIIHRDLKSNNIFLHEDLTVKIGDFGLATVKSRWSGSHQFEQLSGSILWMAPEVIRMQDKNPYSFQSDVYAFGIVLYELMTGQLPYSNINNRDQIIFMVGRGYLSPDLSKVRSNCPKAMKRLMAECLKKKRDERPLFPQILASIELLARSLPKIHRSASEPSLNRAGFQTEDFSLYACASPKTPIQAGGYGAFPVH

IC50 (B-Raf kinase)	IC50 (pERK in MDA-MB-231 cells; [3])	IC50 (KDR kinase (790-1356 AA))	Structure (SMILES)	IC50 (PLC-PRF-5 cells; [2])	IC50 (PLC-PRF-5 cells; PLC-PRF-5, read-out: PLC-PRF-5 cell proliferation IC50)	IC50 (pERK in MDA-MB-231 cells; MDA-MB-231, read-out: MDA-MB-231 pERK IC50)	half-life [1]	in vivo anti-tumor activities (tumor)
13 nM	10.1 nM	6.1 nM	Cc1cc(Oc2ccnc(NC(=O)C3CC3)c2)ccc1NC(=O)Nc1cc(OC(F)(F)F)ccc1F [Exe. 195]	790 nM	–	–	–	–
13 nM	9.2 nM	25.1 nM	O=C(Nc1ccc(F)c(C(F)(F)F)c1)Nc1ccc(Oc2ccnc(NC(=O)C3CC3)c2)cc1F [Exe. 205]	1090 nM	–	–	–	–
37 nM	9.8 nM	14.9 nM	O=C(Nc1cc(F)cc(C(F)(F)F)c1)Nc1ccc(Oc2ccnc(NC(=O)C3CC3)c2)cc1F [Exe. 208]	640 nM	–	–	–	–
9 nM	5.9 nM	8.4 nM	O=C(Nc1ccc(Oc2ccnc(NC(=O)C3CC3)c2)cc1F)Nc1cc(C(F)(F)F)ccc1F [Exe. 209]	51 nM	–	–	–	–
19 nM	17 nM	11.8 nM	O=C(Nc1ccc(Oc2ccnc(NC(=O)C3CC3)c2)cc1F)Nc1cc(C(F)(F)F)ccc1Cl [Exe. 210]	636 nM	–	–	–	–
6.4 nM	2.3 nM	7.8 nM	O=C(Nc1cccc(C(F)(F)F)c1)Nc1ccc(Oc2ccnc(NC(=O)C3CC3)c2)cc1F [Exe. 211]	190 nM	–	–	–	–
19 nM	14.5 nM	13.2 nM	O=C(Nc1ccc(F)c(OC(F)(F)F)c1)Nc1ccc(Oc2ccnc(NC(=O)C3CC3)c2)cc1F [Exe. 215]	618 nM	–	–	–	–
7.8 nM	3.1 nM	9.1 nM	CC(F)(F)c1ccc(F)c(NC(=O)Nc2ccc(Oc3ccnc(NC(=O)C4CC4)c3)cc2F)c1 [Exe. 218]	21 nM	–	–	–	–
7.1 nM	4.6 nM	14.9 nM	CC(F)(F)c1cc(NC(=O)Nc2ccc(Oc3ccnc(NC(=O)C4CC4)c3)cc2F)ccc1F [Exe. 220]	240 nM	–	–	–	–
11 nM	12 nM	10.7 nM	Cc1ccc(Oc2ccnc(NC(=O)C3CC3)c2)cc1NC(=O)Nc1cc(C(F)(F)F)ccc1F [Exe. 225]	5720 nM	–	–	–	–
27 nM	34.4 nM	17.2 nM	Cc1ccc(Oc2ccnc(NC(=O)C3CC3)c2)cc1NC(=O)Nc1cc(C(C)(F)F)ccc1F [Exe. 227]	17800 nM	–	–	–	–

Further lines, the molecule ahead of its results:

Structure (SMILES)	IC50 (B-Raf kinase)	IC50 (pERK in MDA-MB-231 cells; [3])	IC50 (KDR kinase (790-1356 AA))	IC50 (PLC-PRF-5 cells; [2])	IC50 (PLC-PRF-5 cells; PLC-PRF-5, read-out: PLC-PRF-5 cell proliferation IC50)	IC50 (pERK in MDA-MB-231 cells; MDA-MB-231, read-out: MDA-MB-231 pERK IC50)	half-life [1]	in vivo anti-tumor activities (tumor)
N#Cc1cc(NC(=O)Nc2ccc(Oc3ccnc(NC(=O)C4CC4)c3)c(F)c2)cc(C(F)(F)F)c1 [Exe. 190]	87 nM	74.3 nM	11.9 nM	875 nM	–	–	–	–
Cc1cc(Oc2ccnc(NC(=O)C3CC3)c2)ccc1NC(=O)Nc1ccc(F)c(C(F)(F)F)c1 [Exe. 191]	10 nM	9.4 nM	11.8 nM	2530 nM	–	–	–	–
Cc1cc(Oc2ccnc(NC(=O)C3CC3)c2)ccc1NC(=O)Nc1cccc(C(F)(F)F)c1 [Exe. 193]	6.8 nM	7.4 nM	10.9 nM	2300 nM	–	–	–	–
Cc1cc(Oc2ccnc(NC(=O)C3CC3)c2)ccc1NC(=O)Nc1cccc(OC(F)(F)F)c1 [Exe. 194]	8.8 nM	9.5 nM	10.5 nM	2320 nM	–	–	–	–
Cc1cc(Oc2ccnc(NC(=O)C3CC3)c2)ccc1NC(=O)Nc1ccc(F)c(OC(F)(F)F)c1 [Exe. 196]	13 nM	14.6 nM	11.8 nM	2500 nM	–	–	–	–
Cc1cc(Oc2ccnc(NC(=O)C3CC3)c2)ccc1NC(=O)Nc1ccc(Cl)c(C(C)(F)F)c1 [Exe. 199]	11.7 nM	11 nM	14 nM	3700 nM	–	–	–	–
O=C(Nc1cc(N2CC(F)(F)C2)cc(C(F)(F)F)c1)Nc1ccc(Oc2ccnc(NC(=O)C3CC3)c2)cc1F [Exe. 212]	20.1 nM	21.1 nM	5.5 nM	177 nM	–	–	–	–
CC(F)(F)c1ccnc(NC(=O)Nc2ccc(Oc3ccnc(NC(=O)C4CC4)c3)cc2F)c1 [Exe. 216]	10 nM	11.8 nM	10.6 nM	536 nM	–	–	–	–
CC(F)(F)c1cccc(NC(=O)Nc2ccc(Oc3ccnc(NC(=O)C4CC4)c3)cc2F)c1 [Exe. 217]	8.9 nM	2.3 nM	9.9 nM	178 nM	–	–	–	–
CC(F)(F)c1cc(NC(=O)Nc2ccc(Oc3ccnc(NC(=O)C4CC4)c3)cc2F)ccc1Cl [Exe. 219]	8.3 nM	8.8 nM	11 nM	632 nM	–	–	–	–
N#Cc1ccc(NC(=O)Nc2ccc(Oc3ccnc(NC(=O)C4CC4)c3)cc2F)cc1Cl [Exe. 221]	11 nM	–	6.7 nM	–	1270 nM	7.8 nM	–	–
Cc1ccc(Oc2ccnc(NC(=O)C3CC3)c2)cc1NC(=O)Nc1cc(F)cc(C(F)(F)F)c1 [Exe. 224]	29 nM	22.4 nM	9.5 nM	4700 nM	–	–	–	–
Cc1cc(NC(=O)Nc2ccc(F)c(C(F)(F)F)c2)ccc1Oc1ccnc(NC(=O)C2CC2)c1 [Exe. 230]	20.7 nM	12 nM	11.7 nM	830 nM	–	–	–	–
Cc1cc(NC(=O)Nc2cccc(C(F)(F)F)c2)ccc1Oc1ccnc(NC(=O)C2CC2)c1 [Exe. 231]	12.5 nM	7.1 nM	11.6 nM	310 nM	–	–	–	–
Cc1cc(NC(=O)Nc2cccc(OC(F)(F)F)c2)ccc1Oc1ccnc(NC(=O)C2CC2)c1 [Exe. 232]	14 nM	10.9 nM	11 nM	418 nM	–	–	–	–
Cc1cc(NC(=O)Nc2cc(C(C)(F)F)ccc2F)ccc1Oc1ccnc(NC(=O)C2CC2)c1 [Exe. 234]	16 nM	6.8 nM	9.9 nM	63 nM	–	–	–	–
Cc1cc(NC(=O)Nc2ccc(Cl)c(C(C)(F)F)c2)ccc1Oc1ccnc(NC(=O)C2CC2)c1 [Exe. 235]	22 nM	12.2 nM	13.4 nM	1290 nM	–	–	–	–
O=C(Nc1ccc(Oc2ccnc(NC(=O)C3CC3)c2)cc1)Nc1cc(OCC2CNC2)cc(C(F)(F)F)c1 [Exe. 237, N-[4-[4-[[3-(azetidin-3-ylmethoxy)-5-(trifluoromethyl)phenyl]carbamoylamino]phenoxy]-2-pyridyl]cyclopropanecarboxamide]	3.7 nM	730 nM	13.9 nM	14900 nM	–	–	–	–
Nc1cc(NC(=O)Nc2ccc(Oc3ccnc(NC(=O)C4CC4)c3)c(F)c2)cc(C(F)(F)F)c1 [Exe. 239]	7 nM	27.2 nM	9.7 nM	930 nM	–	–	–	–
CN1CC(Oc2cc(NC(=O)Nc3ccc(Oc4ccnc(NC(=O)C5CC5)c4)cc3)cc(C(F)(F)F)c2)C1 [Exe. 241, N-[4-[4-[[3-(1-methylazetidin-3-yl)oxy-5-(trifluoromethyl)phenyl]carbamoylamino]phenoxy]-2-pyridyl]cyclopropanecarboxamide]	9.1 nM	61.5 nM	17.9 nM	1770 nM	–	–	–	–
CNC(=O)c1cc(Oc2ccc(NC(=O)Nc3ccc(Cl)c(C(F)(F)F)c3)cc2)ccn1 [sorafenib]	–	–	–	–	–	–	shorter half-life than many of the compounds in this invention	weaker than that of many of the compounds in the present invention
